Data from ChEMBL document CHEMBL3779770, “Synthesis, biological evaluation and molecular docking study of some novel indole and pyridine based 1,3,4-oxadiazole derivatives as potential antitubercular agents” (Bioorg Med Chem Lett, 2016).
Converted amounts (≈) assume the structure as drawn.

Key:
[1] = tested on: Mycobacterium tuberculosis variant bovis BCG; assay: Antitubercular activity against active state Mycobacterium bovis BCG ATCC 35734 assessed as viable cells after 8 days by nitrate reductase assay; assay type: functional, organism-based; conditions: ATCC 35734, 192 h
[2] = tested on: Mycobacterium tuberculosis variant bovis BCG; assay: Antitubercular activity against dormant state Mycobacterium bovis BCG ATCC 35734 assessed as viable cells after 12 days by nitrate reductase assay; assay type: functional, organism-based; conditions: ATCC 35734, 288 h

| SMILES | IC50 [1] | MIC [1] | IC50 [2] | MIC [2] |
| --- | --- | --- | --- | --- |
| O=C(/C=C\c1ccccc1[N+](=O)[O-])N1N=C(c2ccncc2)OC1c1c[nH]c2ccccc12 (stereo not drawn) | 0.48 µg/mL (≈ 1.09 µM) | 1.03 µg/mL (≈ 2.34 µM) | 0.36 µg/mL (≈ 0.819 µM) | 0.85 µg/mL (≈ 1.93 µM) |
| O=C(/C=C\c1ccccc1)N1N=C(c2ccncc2)OC1c1c[nH]c2ccccc12 (stereo not drawn) | 12.3 µg/mL (≈ 31.3 µM) | > 30 µg/mL | 11.2 µg/mL (≈ 28.5 µM) | > 30 µg/mL |
| O=C(/C=C\c1ccccc1Cl)N1N=C(c2ccncc2)OC1c1c[nH]c2ccccc12 (stereo not drawn) | > 30 µg/mL | > 30 µg/mL | > 30 µg/mL | > 30 µg/mL |
| O=C(/C=C\c1cccc([N+](=O)[O-])c1)N1N=C(c2ccncc2)OC1c1c[nH]c2ccccc12 (stereo not drawn) | > 30 µg/mL | > 30 µg/mL | > 30 µg/mL | > 30 µg/mL |
| O=C(/C=C/c1c(Cl)cccc1Cl)N1N=C(c2ccncc2)OC1c1c[nH]c2ccccc12 (stereo not drawn) | > 30 µg/mL | > 30 µg/mL | 19.2 µg/mL (≈ 41.5 µM) | > 30 µg/mL |
| O=C(/C=C\c1cccc(Br)c1)N1N=C(c2ccncc2)OC1c1c[nH]c2ccccc12 (stereo not drawn) | > 30 µg/mL | > 30 µg/mL | 21.7 µg/mL (≈ 45.9 µM) | > 30 µg/mL |
| O=C(/C=C\c1ccc([N+](=O)[O-])cc1)N1N=C(c2ccncc2)OC1c1c[nH]c2ccccc12 (stereo not drawn) | 1.42 µg/mL (≈ 3.23 µM) | 2.5 µg/mL (≈ 5.69 µM) | 1.37 µg/mL (≈ 3.12 µM) | 2.37 µg/mL (≈ 5.39 µM) |
| O=C(/C=C\c1ccc(F)cc1)N1N=C(c2ccncc2)OC1c1c[nH]c2ccccc12 (stereo not drawn) | > 30 µg/mL | > 30 µg/mL | > 30 µg/mL | > 30 µg/mL |
| O=C(/C=C\c1ccc(Cl)cc1Cl)N1N=C(c2ccncc2)OC1c1c[nH]c2ccccc12 (stereo not drawn) | 2.93 µg/mL (≈ 6.32 µM) | 5.17 µg/mL (≈ 11.2 µM) | 1.5 µg/mL (≈ 3.24 µM) | 4.97 µg/mL (≈ 10.7 µM) |
| O=C(/C=C\c1cccc(F)c1)N1N=C(c2ccncc2)OC1c1c[nH]c2ccccc12 (stereo not drawn) | 19.5 µg/mL (≈ 47.4 µM) | > 30 µg/mL | 20.4 µg/mL (≈ 49.5 µM) | > 30 µg/mL |
| O=C(/C=C\c1cccc(Cl)c1)N1N=C(c2ccncc2)OC1c1c[nH]c2ccccc12 (stereo not drawn) | > 30 µg/mL | > 30 µg/mL | > 30 µg/mL | > 30 µg/mL |
| NNC(=O)c1ccncc1 [ISONIAZID] | 0.0012 µg/mL (≈ 0.00875 µM) | 0.033 µg/mL (≈ 0.241 µM) | 0.0017 µg/mL (≈ 0.0124 µM) | 0.037 µg/mL (≈ 0.27 µM) |
| O=C(/C=C\c1ccccc1F)N1N=C(c2ccncc2)OC1c1c[nH]c2ccccc12 (stereo not drawn) | > 30 µg/mL | > 30 µg/mL | > 30 µg/mL | > 30 µg/mL |
| O=C(/C=C\c1cccc(O)c1)N1N=C(c2ccncc2)OC1c1c[nH]c2ccccc12 (stereo not drawn) | > 30 µg/mL | > 30 µg/mL | > 30 µg/mL | > 30 µg/mL |
| Cc1ccc(/C=C\C(=O)N2N=C(c3ccncc3)OC2c2c[nH]c3ccccc23)cc1 (stereo not drawn) | > 30 µg/mL | > 30 µg/mL | > 30 µg/mL | > 30 µg/mL |
| CO[C@H]1/C=C/O[C@@]2(C)Oc3c(C)c(O)c4c(O)c(c(/C=N/N5CCN(C)CC5)c(O)c4c3C2=O)NC(=O)/C(C)=C\C=C\[C@H](C)[C@H](O)[C@@H](C)[C@@H](O)[C@@H](C)[C@H](OC(C)=O)[C@@H]1C [RIFAMPIN] | 0.0012 µg/mL (≈ 0.00146 µM) | 0.015 µg/mL (≈ 0.0182 µM) | 0.0015 µg/mL (≈ 0.00182 µM) | 0.017 µg/mL (≈ 0.0207 µM) |
| O=C(/C=C\c1ccc(O)cc1)N1N=C(c2ccncc2)OC1c1c[nH]c2ccccc12 (stereo not drawn) | 28.8 µg/mL (≈ 70.2 µM) | > 30 µg/mL | 27.9 µg/mL (≈ 68 µM) | > 30 µg/mL |
| COc1ccc(/C=C\C(=O)N2N=C(c3ccncc3)OC2c2c[nH]c3ccccc23)cc1 (stereo not drawn) | > 30 µg/mL | > 30 µg/mL | > 30 µg/mL | > 30 µg/mL |
| O=C(/C=C\c1ccc(Br)cc1)N1N=C(c2ccncc2)OC1c1c[nH]c2ccccc12 (stereo not drawn) | > 30 µg/mL | > 30 µg/mL | > 30 µg/mL | > 30 µg/mL |
| O=C(/C=C\c1cccc(Cl)c1Cl)N1N=C(c2ccncc2)OC1c1c[nH]c2ccccc12 (stereo not drawn) | > 30 µg/mL | > 30 µg/mL | > 30 µg/mL | > 30 µg/mL |
| O=C(/C=C\c1ccccc1O)N1N=C(c2ccncc2)OC1c1c[nH]c2ccccc12 (stereo not drawn) | 0.46 µg/mL (≈ 1.12 µM) | 0.94 µg/mL (≈ 2.29 µM) | 0.68 µg/mL (≈ 1.66 µM) | 1.19 µg/mL (≈ 2.9 µM) |
| O=C(/C=C\c1ccc(Cl)cc1)N1N=C(c2ccncc2)OC1c1c[nH]c2ccccc12 (stereo not drawn) | > 30 µg/mL | > 30 µg/mL | > 30 µg/mL | > 30 µg/mL |
